Molecules are shown by their SMILES.

On to `Cc1cccc(C(=O)N(NC(=O)c2ccccc2)C(C)(C)C)c1`, for which the melting point was found to be 211 °C.
With `NC1=C(Cl)C(=O)c2ccccc2C1=O`, the melting point was 201 °C.
Take `CCOc1ncnc2c1cnn2-c1ccccc1`: the melting point was in the range of 94 to 96 °C.
The figure for `COc1c(Br)cc(C(=O)O)cc1Br` is 224 to 226 °C; for `O=C1OC(=O)c2c(F)c(F)c(F)c(F)c21` it is 95 °C; for `C(=C(c1ccccc1)c1ccccc1)c1ccccc1` it is 72.5 °C.
The compound `CC(=O)C(F)(F)F` registered a melting point of -78 °C.
The figure for `O=C(O)CNC(=O)c1ccccc1` is 222 °C; for `COc1cccc(C(=O)NN(C(=O)c2cc(C)cc(C)c2)C(C)(C)C)c1C` it is 204 °C.
The result for `O=[N+]([O-])c1cccc([N+](=O)[O-])c1CO` reads 85 to 95 °C; that for `N#Cc1ccc(Oc2ccc(C(F)(F)F)cc2N)cc1`, 106 to 108 °C; that for `CCOC(=O)c1[nH]c(C)c(C(=O)OCC)c1C`, 137 °C.
With `CCCCCCSc1nc2ccc(NC(=O)COc3ccc(Cl)cc3Cl)cc2s1`, the melting point stood at 105 °C.
Take `CNCc1nn(C)c2ccccc12`: the melting point was 37 to 40 °C.
Turning to `COc1ccc(CC(N)C(=O)NC2C(CO)OC(n3cnc4c(N(C)C)ncnc43)C2O)cc1` (centres undefined), the melting point is 176 °C.
In the case of `Cc1ccc2c(ccc3cc4ccccc4cc32)c1`, the melting point was 156 °C.
The compound `O=C(O)c1csc(-c2cccc(Cl)c2)n1` showed a melting point of 206 to 207 °C.
The figure for `COc1cc(N)c(Cl)cc1C(=O)O` is 206 to 210 °C; for `CC(C)(C#N)OC1OC(CO)C(O)C(O)C1O` (centres undefined) it is 145 °C.
The figure for `Nc1c(Cl)cc(C(=O)O)cc1Cl` is 292 °C; for `OCc1ccc(-c2cccnc2)cc1` it is 106 to 107 °C.
In turn, `Fc1ccc(C(c2ccc(F)cc2)C(Cl)(Cl)Cl)cc1` showed a melting point of 44.5 °C.
For the compound `Cn1ncc(N2CCOCC2)c(Cl)c1=O`, the melting point lay within 131 to 133 °C.
As for `CC(=O)Nc1ccc(S(N)(=O)=O)cc1`, the melting point was 220 °C.
As for `CSc1nc2cc(NCc3ccccc3Cl)ccc2[nH]1`, the melting point lay in the range of 207 to 209 °C.
The result for `CC/C=C\C(C)(C)C` reads -137 °C.
`COC(=O)CC1CCC(NC(=O)OC(C)(C)C)CC1` (centres undefined): the melting point is 81 °C.
Consider `CCC(C(=O)O)c1ccc(CC(C)C)cc1` (centres undefined), for which the melting point was found to be 52 °C.
The result for `Cc1ccc([N+](=O)[O-])cc1N=C=O` reads 51 °C.
The compound `O=C1C=C(NCCCc2ccccc2)C(=O)c2ccccc21` registered a melting point of 116 °C.
For the compound `COc1cc(F)c(F)cc1C#N`, the melting point was 99 °C.
For `CCCC(C)O` (centres undefined), the melting point is -73 °C.
`O=C(OCc1ccc([N+](=O)[O-])cc1[N+](=O)[O-])c1ccccc1`: the melting point worked out at 139 °C.
The figure for `Cn1c2ccccc2n2c(=O)c3ccncc3c(C#N)c12` is 296 °C; for `CC(=O)Nc1cccc(N=[N+]([O-])c2cccc(NC(C)=O)c2)c1` it is 254 °C.
The compound `COc1ccc(-c2nnc3n2NC(c2ccccc2OC)S3)cc1` (centres undefined) gave a melting point of 166 °C.
The result for `c1ccc(-c2cn3c(n2)SCC3)cc1` reads 147 to 148 °C; that for `FC(F)(F)C(F)(Cl)Cl`, -56.6 °C.
`O=C(O)C(C(=O)O)c1ccsc1` had a melting point of 139 °C.
The figure for `Cn1c(C(F)(F)F)n[nH]c1=S` is 116 to 118 °C; for `CC12CCC(/C(=C\Nc3ccccc3C(=O)O)C1=O)C2(C)C` (centres undefined) it is 176 °C.
With `Cc1ccccc1NN=C1C(=O)NC(=O)NC1=O`, the melting point came out at 265 °C.
For `O=C(CBr)c1ccc(-c2ccccn2)s1`, the melting point was in the range of 123 to 126 °C.
Regarding `C=Cc1ccccc1-c1cn[nH]c1`, the melting point is 114 °C.
Take `Cc1cc(C(F)(F)F)n2nc(N)c(/N=N/c3c(Cl)cc(Cl)cc3Cl)c2n1`: the melting point was 189 °C.
Consider `CC(C)Cc1ccc(CC(=O)O)cc1`, for which the melting point was 86 °C.
`ClCc1c(Cl)cccc1Cl` had a melting point of 38 °C.
Compound `CC(C)(C)OC(=O)NC(Cc1ccccc1)C(=O)NN` (centres undefined) registered a melting point of 131 to 136 °C.
As for `Nc1ccc(N)c2ccccc12`, the melting point was found to be 120 °C.
The figure for `Oc1ccc(C2SCCS2)cc1` is 118 °C; for `CC12CCC3=C(CC[C@]4(C)C(=O)CC[C@@H]34)[C@H]1CCC(=O)C2` (some centres undefined) it is 149 °C.
`CCCCCCCCCCc1ccc(NC(=O)c2ccc(C)cc2)cc1` registered a melting point of 114 °C.
`CC(C)(C)Oc1ncc(Br)cn1` registered a melting point of 62 °C.
On to `C=C(C)CN(CC)c1c([N+](=O)[O-])cc(C(F)(F)F)cc1[N+](=O)[O-]`, for which the melting point came to 55.5 °C.
In the case of `O=[N+]([O-])c1ccc(CCO)cc1`, the melting point worked out at 63 °C.
Turning to `N#Cc1cc(F)c(Cl)cc1Cl`, the melting point was 46 °C.
The compound `O=Cc1ccc(-c2ccc(C(F)(F)F)cn2)cc1` gave a melting point of 91 to 93 °C.
Compound `OC1CCCC1C1CCCC1` (centres undefined) displayed a melting point of 20 °C.
For the compound `Cc1cc(N)n(C)n1`, the melting point was 75 °C.
The compound `COc1ccc(/N=N/c2c(N)nn3c(C(F)(F)F)cc(C)nc23)cc1` showed a melting point of 158 °C.
The figure for `COc1cc(I)c(OC)cc1Cl` is 115 to 116 °C; for `Cn1nc(C(=O)O)c2ccccc21` it is 213 to 221 °C.
The result for `O=C1c2ccc(C=NO)cc2C(=O)c2c(Cl)c(Cl)c(Cl)c(Cl)c21` reads 234 to 235 °C.
The figure for `c1cc(N2CCCC2)ccn1` is 56 °C; for `FC(F)(F)c1ccc2c(Cl)ccnc2c1` it is 69 to 73 °C.
`Cc1cccc(CC(=O)O)c1` displayed a melting point of 64 °C.
`Cc1ccc(C(c2ccc(C)o2)c2cc(Br)cc([N+](=O)[O-])c2O)o1`: the melting point was determined as 100 °C.
Turning to `O=C1c2ccccc2C(=O)c2c(NCCO)ccc(NCCO)c21`, the melting point worked out at 248 °C.
`CCCCCCCCNC(C)C(O)c1ccc(SC(C)C)cc1` (centres undefined) came in with a melting point of 62.5 °C.
Take `COC(=O)c1cc([N+](=O)[O-])ccc1Br`: the melting point was found to be 81 °C.
`O=C(O)/C(=C\c1ccccc1)c1ccccc1[N+](=O)[O-]`: the melting point was 192 °C.
`CC12CCC(/C(=C3/OC(C4C(=O)C5(C)CCC4C5(C)C)C3=O)C1=O)C2(C)C` (centres undefined) returned a melting point of 196 °C.
Turning to `O=C1CCCCCCCCCCC(=O)OCCO1`, the melting point is 18 °C.
Consider `CCOC(=O)C1=C(NC(=O)CCl)Oc2c(c(=O)oc3ccccc23)C1c1ccc(Br)cc1` (centres undefined), for which the melting point is 158 °C.
`CCOC=C(C#N)S(=O)(=O)Cc1ccco1`: the melting point lay within 98 to 100 °C.
With `Cc1ccc(-c2ccc(C=C3C(=O)OC(C)(C)OC3=O)o2)cc1`, the melting point was 166 °C.
Regarding `c1ccc(-c2coc(-c3ccccc3)n2)cc1`, the melting point is 103 °C.
As for `O=Cc1ccc(OP(=S)(Oc2ccc(C=O)cc2)Oc2ccc(C=O)cc2)cc1`, the melting point fell in the range of 115 to 119 °C.
In the case of `Nc1cc([N+](=O)[O-])c(/C=C/c2ccccc2)cc1/C=C/c1ccccc1`, the melting point is 111 °C.
The figure for `CC(C)(C)[Si](C)(C)Cl` is 88 °C; for `Nc1nc(O)nc2c1cnn2CCO` it is 305 to 310 °C; for `OCC1OC(OCC2OC(O)(CO)C(O)C2O)C(O)C(O)C1O` (centres undefined) it is 125 to 128 °C.
The result for `CCC[C@H]1CCC[C@H]1C` (relative stereo) reads -104 °C; that for `CC(=O)c1sc(-c2ccccc2)nc1C`, 67 to 68 °C.
The figure for `NNC(=S)Nc1cccc(F)c1` is 164 to 166 °C.
In the case of `Nc1nc(-c2ccc(F)c(F)c2)cs1`, the melting point fell in the range of 116 to 117 °C.
`NNc1c(Cl)cc(Cl)cc1Cl` showed a melting point of 142 °C.
For the compound `COc1ccc(C(=O)C2=NOC3C(=O)N(c4ccc(C(=O)O)cc4)C(=O)C23)cc1` (centres undefined), the melting point was 199 °C.
The compound `COc1ccc(C=C2SC(=S)N(CN3CCCCC3)C2=O)cc1` yielded a melting point of 222 to 223 °C.
The compound `OC1CCCCCCCCCCCCCC1` yielded a melting point of 80.5 °C.
`CCCCOc1ccc(NC(C)=O)cc1` gave a melting point of 110 to 112 °C.
The result for `CCSC(=O)Cl` reads -60 °C.
The result for `Clc1cc(Cl)c2c(c1Cl)Oc1ccccc1O2` reads 128 °C; that for `O=C(OCc1ccccc1Cl)ON1C(=O)CCC1=O`, 103 to 105 °C.
`O=C1C(=Cc2ccccc2)N=C(N2CCOCC2)N1c1ccccc1` yielded a melting point of 235 °C.
`COc1nsnc1NS(=O)(=O)c1ccc(N)cc1` came in with a melting point of 150 °C.
Compound `O=S(=O)(O)c1ccc(O)c2ncccc12` registered a melting point of 322 °C.
Take `O=S(=O)(Cl)c1ccc(Br)s1`: the melting point was 41 °C.
The result for `O=C(O)C1C(c2ccccc2)C(C(=O)O)C1c1ccccc1` (centres undefined) reads 228 °C; that for `CC(=O)C1CCC2C3CCC4CC(O)CCC4(C)C3CCC12C` (centres undefined), 194 °C; that for `C=C(C)CCCCCCCCCCCC`, -15 °C.
`O=C(O)c1ccccc1OC(F)(F)F`: the melting point was 79 °C.
The figure for `ClC1CCCCC1Cl` (centres undefined) is -1.5 °C.
The figure for `Sc1ccc(Cl)cc1` is 61 °C; for `Clc1ccc2c(Cl)ccnc2c1` it is 93 °C; for `O=Cc1cccc2cccc([N+](=O)[O-])c12` it is 125 °C.
`N#CC1=C(C#N)C(=O)C(NCc2ccccc2)=C(Cl)C1=O` yielded a melting point of 232 to 234 °C.
For `O=C(Nc1ccc([N+](=O)[O-])cc1Cl)c1cc(Cl)ccc1O`, the melting point was found to be 230 °C.
In the case of `Cc1nc(C(C)(C)C)sc1C(=O)O`, the melting point came out at 156 °C.

For the origin of these results see a melting point compilation (Tetko et al.).
